Test system: P. falciparum (NF54 or 3D7 strain) in infected human erythrocytes
Test: Assay for P. falciparum proliferation in infected human blood cells (SYBR Green)
Assay type: cell-based
Settings: Plasmodium falciparum, Erythrocyte; NF54 or 3D7 strain, 72 hours, SYBR Green fluorescence; read-out: EC50 (nM), inhibitory efficacy in delaying P. falciparum proliferation in infected human blood cells
Description: Assay for P. falciparum Proliferation in Infected Human Blood Cells
Compounds of the invention can be assayed to measure their capacity to inhibit proliferation of P. falciparum parasitemia in infected red blood cells. This parasite proliferation assay measures the increase in parasite DNA content using a DNA intercalating dye, SYBR Green® (INVITROGEN®) which has a high affinity for double stranded DNA.
NF54 or 3D7 P. falciparum strain is grown in complete culturing media until parasitemia reaches 3% to 8% with O+ human erythrocytes. […] 20 μl of screening media is dispensed into 384 well assay plates. 50 nl of compounds of the invention (in DMSO), including antimalarial controls (mefloquine, pyrimethamine and artemisinin), are then transferred into the assay plates, as well as DMSO alone to serve as a negative control for inhibition. Then 30 μl of a suspension of a NF54 or 3D7 P. falciparum infected erythrocytes in screening media is dispensed into the assay plates such that the final hematocrit is 2.5% with a final parasitemia of 0.3%. The plates are placed in a 37° C. incubator for 72 hours in a low oxygen environment containing 93% N2, 4% CO2, and 3% O2 gas mixture. 10 μl of lysis buffer (saponin, triton-X, EDTA) containing a 10× solution of SYBR Green I® in RPMI media is dispensed into the plates. The plates are lidded and kept at room temperature overnight for the lysis of the infected red blood cells. The fluorescence intensity is measured (excitation […], emission 530 nm) using the Envision™ system (Perkin Elmer). The percentage inhibition of 50%, […], is calculated for each compound.

SMILES | EC50
CN(C(=O)c1ccn2ncc(-c3ccc4c(cnn4C)c3)c2c1)c1ccc(C#N)cc1 [Example 17, N-(4-cyanophenyl)-N-methyl-3-(1-methyl-1H-indazol-5-yl)pyrazolo[1,5-a]pyridine-5-carboxamide] | 3 nM
CC(=O)Nc1ccc(-c2cnn3ccc(C(=O)N(C)c4ccc(C#N)cc4)cc23)cn1 [Example 18, 3-(6-acetamidopyridin-3-yl)-N-(4-cyanophenyl)-N-methylpyrazolo[1,5-a]pyridine-5-carboxamide] | 3 nM
Fc1ccc(SCc2ccn3ncc(-c4ccc(C(F)(F)F)cc4)c3c2)cc1 [Example 21, 5-(((4-fluorophenyl)thio)methyl)-3-(4-(trifluoromethyl)phenyl)pyrazolo[1,5-a]pyridine] | 472 nM
[O-][S+](Cc1ccn2ncc(-c3ccc(C(F)(F)F)cc3)c2c1)c1ccc(F)cc1 (centres unmarked) [Example 22, 5-(((4-fluorophenyl)sulfinyl)methyl)-3-(4-(trifluoromethyl)phenyl)pyrazolo[1,5-a]pyridine] | 25 nM
CN(C(=O)c1ccn2ncc(-c3ccc(-c4ccn[nH]4)cc3)c2c1)c1ccc(C#N)cc1 [Example 23, 3-(4-(1H-pyrazol-5-yl)phenyl)-N-(4-cyanophenyl)-N-methylpyrazolo[1,5-a]pyridine-5-carboxamide] | 2 nM
CN(C(=O)c1ccn2ncc(-c3ccc(C(F)(F)F)cn3)c2c1)c1ccc(C#N)cc1 [Example 24, N-(4-cyanophenyl)-N-methyl-3-(5-(trifluoromethyl)109yridine-2-yl)pyrazolo[1,5-a]pyridine-5-carboxamide] | 10 nM
C[C@H](N)C(=O)Nc1ccc(-c2cnn3ccc(C(=O)N(C)c4ccc(C#N)cc4)cc23)cc1 [Example 26, (S)-3-(4-(2-aminopropanamido)phenyl)-N-(4-cyanophenyl)-N-methylpyrazolo[1,5-a]pyridine-5-carboxamide] | 22 nM
CN(C(=O)c1ccc(F)cc1)c1ccn2ncc(-c3ccc(C(F)(F)F)cc3)c2c1 [Example 29, 4-fluoro-N-methyl-N-(3-(4-(trifluoromethyl)phenyl)pyrazolo[1,5-a]pyridine-5-yl)benzamide] | 150 nM
CN(c1ccn2ncc(-c3ccc(C(F)(F)F)cc3)c2c1)S(=O)(=O)c1ccc(C#N)cc1 [Example 30, 4-cyano-N-methyl-N-(3-(4-(trifluoromethyl)phenyl)pyrazolo[1,5-a]pyridine-5-yl)benzenesulfonamide] | 62 nM
CN(c1ccn2ncc(-c3ccc(C(F)(F)F)cc3)c2c1)S(=O)(=O)c1ccc(F)cc1 [Example 31, 4-fluoro-N-methyl-N-(3-(4-(trifluoromethyl)phenyl)pyrazolo[1,5-a]pyridine-5-yl)benzenesulfonamide] | 143 nM
CN(C(=O)c1ccn2ncc(-c3ccc(C(F)(F)F)cc3)c2c1)c1ccc(C(F)(F)F)cn1 [Example 33, N-methyl-3-(4-(trifluoromethyl)phenyl)-N-(5-(trifluoromethyl)pyridine-2-yl)pyrazolo[1,5-a]pyridine-5-carboxamide] | 59 nM
Fc1ccc(CNc2ccn3ncc(-c4ccc(C(F)(F)F)cc4)c3c2)cc1 [Example 35, N-(4-fluorobenzyl)-3-(4-(trifluoromethyl)phenyl)pyrazolo[1,5-a]pyridine-5-amine] | 2040 nM
CN(Cc1ccc(F)cc1)c1ccn2ncc(-c3ccc(C(F)(F)F)cc3)c2c1 [Example 36, N-(4-fluorobenzyl)-N-methyl-3-(4-(trifluoromethyl)phenyl)pyrazolo[1,5-a]pyridine-5-amine] | 390 nM
CN(C(=O)c1ccc(C(F)(F)F)nc1)c1ccn2ncc(-c3ccc(C(F)(F)F)cc3)c2c1 [Example 37, N-methyl-6-(trifluoromethyl)-N-(3-(4-(trifluoromethyl)phenyl)pyrazolo[1,5-a]pyridine-5-yl)nicotinamide] | 121 nM
CN(C(=O)c1ccc(C(F)(F)F)cn1)c1ccn2ncc(-c3ccc(C(F)(F)F)cc3)c2c1 [Example 38, N-methyl-5-(trifluoromethyl)-N-(3-(4-(trifluoromethyl)phenyl)pyrazolo[1,5-a]pyridine-5-yl)picolinamide] | 179 nM
N#Cc1ccc(C(=O)N(CC2CCOCC2)c2ccn3ncc(-c4ccc(C(F)(F)F)cc4)c3c2)cc1 [Example 39, 4-cyano-N-((tetrahydro-2H-pyran-4-yl)methyl)-N-(3-(4-(trifluoromethyl)phenyl)pyrazolo[1,5-a]pyridin-5-yl)benzamide] | 831 nM

SMILES | EC50
CN(C(=O)c1ccn2ncc(-c3ccc(N)cc3)c2c1)c1ccc(C#N)cc1 [Example 42, 3-(4-aminophenyl)-N-(4-cyanophenyl)-N-methylpyrazolo[1,5-a]pyridine-5-carboxamide] | 18 nM
CN(C(=O)c1ccn2ncc(-c3ccc(NC(=O)CN)cc3)c2c1)c1ccc(C#N)cc1 [Example 43, 3-(4-(2-aminoacetamido)phenyl)-N-(4-cyanophenyl)-N-methylpyrazolo[1,5-a]pyridine-5-carboxamide] | 9 nM
C[C@@H](N)C(=O)Nc1ccc(-c2cnn3ccc(C(=O)N(C)c4ccc(C#N)cc4)cc23)cc1 [Example 44, (R)-3-(4-(2-aminopropanamido)phenyl)-N-(4-cyanophenyl)-N-methylpyrazolo[1,5-a]pyridine-5-carboxamide] | 1 nM
CC(C)[C@H](N)C(=O)Nc1ccc(-c2cnn3ccc(C(=O)N(C)c4ccc(C#N)cc4)cc23)cc1 [Example 45, (S)-3-(4-(2-amino-3-methylbutanamido)phenyl)-N-(4-cyanophenyl)-N-methylpyrazolo[1,5-a]pyridine-5-carboxamide] | 16 nM
CN(C(=O)c1ccn2ncc(-c3ccc(NC(=O)[C@@H](N)C4CCCCC4)cc3)c2c1)c1ccc(C#N)cc1 [Example 46, (S)-3-(4-(2-amino-2-cyclohexylacetamido)phenyl)-N-(4-cyanophenyl)-N-methylpyrazolo[1,5-a]pyridine-5-carboxamide] | 18 nM
CN(C(=O)Nc1ccc(F)cc1)c1ccn2ncc(-c3ccc(C(F)(F)F)cc3)c2c1 [Example 47, 3-(4-fluorophenyl)-1-methyl-1-(3-(4-(trifluoromethyl)phenyl)pyrazolo[1,5-a]pyridin-5-yl)urea] | > 9000 nM
CN(C(=O)c1ccc(C(C)(F)F)nc1)c1ccn2ncc(-c3ccc(C(F)(F)F)cc3)c2c1 [Example 48, 6-(1,1-difluoroethyl)-N-methyl-N-(3-(4-(trifluoromethyl)phenyl)pyrazolo[1,5-a]pyridin-5-yl)nicotinamide] | 288 nM
CN(C(=O)c1ccc(C2CC2)nc1)c1ccn2ncc(-c3ccc(C(F)(F)F)cc3)c2c1 [Example 49, 6-cyclopropyl-N-methyl-N-(3-(4-(trifluoromethyl)phenyl)pyrazolo[1,5-a]pyridin-5-yl)nicotinamide] | 2290 nM
CN(C(=O)c1ccc(C2CC2)cc1)c1ccn2ncc(-c3ccc(C(F)(F)F)cc3)c2c1 [Example 50, 4-cyclopropyl-N-methyl-N-(3-(4-(trifluoromethyl)phenyl)pyrazolo[1,5-a]pyridin-5-yl)benzamide] | 3850 nM
CN(C(=O)c1ccc(F)cn1)c1ccn2ncc(-c3ccc(C(F)(F)F)cc3)c2c1 [Example 51, 5-fluoro-N-methyl-N-(3-(4-(trifluoromethyl)phenyl)pyrazolo[1,5-a]pyridin-5-yl)picolinamide] | 60 nM
CN(C(=O)c1ccc(S(C)(=O)=O)cc1)c1ccn2ncc(-c3ccc(C(F)(F)F)cc3)c2c1 [Example 52, N-methyl-4-(methylsulfonyl)-N-(3-(4-(trifluoromethyl)phenyl)pyrazolo[1,5-a]pyridin-5-yl)benzamide] | 13 nM
CN(C(=O)c1ccn2ncc(-c3cnc4[nH]ccc4c3)c2c1)c1ccc(C#N)cn1 [Example 53, N-(5-cyanopyridin-2-yl)-N-methyl-3-(1H-pyrrolo[2,3-b]pyridin-5-yl)pyrazolo[1,5-a]pyridine-5-carboxamide] | 1 nM
CN(C(=O)c1ccc(Cl)cc1)c1ccn2ncc(-c3ccc(C(F)(F)F)cc3)c2c1 [Example 55, 4-chloro-N-methyl-N-(3-(4-(trifluoromethyl)phenyl)pyrazolo[1,5-a]pyridin-5-yl)benzamide] | 32 nM
CN(C(=O)c1ccc(F)cc1)c1ccn2ncc(-c3ccc(C(N)=O)cc3)c2c1 [Example 56, N-(3-(4-carbamoylphenyl)pyrazolo[1,5-a]pyridin-5-yl)-4-fluoro-N-methylbenzamide] | 8 nM
CNc1nnc(-c2ccc(-c3cnn4ccc(N(C)C(=O)c5ccc(F)cc5)cc34)cc2)s1 [Example 57, 4-fluoro-N-methyl-N-(3-(4-(5-(methylamino)-1,3,4-thiadiazol-2-yl)phenyl)pyrazolo[1,5-a]pyridin-5-yl)benzamide] | 4 nM
CN(C(=O)c1ccn2ncc(-c3cnc4[nH]ccc4c3)c2c1)c1ccc(S(C)(=O)=O)cn1 [Example 58, N-methyl-N-(5-(methylsulfonyl)pyridin-2-yl)-3-(1H-pyrrolo[2,3-b]pyridin-5-yl)pyrazolo[1,5-a]pyridine-5-carboxamide] | 30 nM

Source: patent US8871754B2, “Compounds and compositions for the treatment of parasitic diseases” (IRM LLC, priority 2012, dated 2014)
